# Patent US20230038373A1, “STABILE CONJUGATE” (Glykos Biomedical OY, priority 2019, published 2023)
# “And” between values parts separate entries of the source, which are not always exact repeats. Equal values may be shown once.
# Legend:
# [1] = Stability of kifunensine ester compounds in buffered cell culture medium (MALDI-TOF MS); format: physicochemical; conditions: 5 days' incubation in buffered cell culture medium at +37° C.; signal vs hydrolysis product kifunensine
# Experimental: (§1) Serum was obtained from laboratory mice according to ethical permission, or from healthy human volunteers, and prepared with standard procedures. Buffer stability test were performed either in phosphate-buffered saline (PBS, Gibco) or standard cell culture medium recommended for SK-BR-3 cells by the ATCC (about neutral pH). Payload-linker molecules were incubated in serum, buffer or medium, after which the incubation mixture was analyzed by MALDI-TOF MS as described above. […] Similar studies were also conducted with the 33DFTG-ester compounds, further verifying the observation of stabilization by carboxylic acid modifications of the ester against esterase hydrolysis. However, all the kifunensine ester compounds, when applied in 10 μM concentration to SK-BR-3 cell culture for three days, were active in mannosidase I inhibition (as shown by MALDI-TOF MS analysis of neutral N-glycans of the SK-BR-3 cells after the incubation as described below), showing that regardless of the relative protection from serum esterase hydrolysis, the esters could still be hydrolysed in cells to liberate the active payload.
# [2] = Stability of kifunensine ester compounds in mouse serum (MALDI-TOF MS); format: in vitro ADME; conditions: 4 days' incubation in mouse serum at +37° C.
# Experimental: as §1
# [3] = test system: immature dendritic cells (iDCs) with SK-BR-3 cells; experiment: Dendritic cell activation assay (iDC / SK-BR-3 co-culture, fractalkine secretion); format: cell-based, human; conditions: 5 nM test compound
# Source text: Monocytes were isolated from human peripheral blood (buffy coat) from healthy adult donors (Finnish Red Cross Blood Service) by using magnetic-activated microbead based cell sorting for CD14 positive cells (Miltenyi Biotec). Monocytes were differentiated to immature dendritic cells (iDCs) by using Mo-DC Differentiation Medium (Miltenyi Biotec) according the manufacturer's instructions. On day 6, to analyze cell surface expression of maturation markers, the iDCs were labeled with specific monoclonal antibodies for CD209 (R&D Systems) and CD14 (eBioscience). Nonspecific antibody binding was assessed using appropriate isotype controls. The iDCs were used for co-culture experiment on day 7.
# SK-BR-3 cells (ATCC) were cultured in DMEM (Gibco) containing GlutaMAX and supplemented with 10% heat-inactivated fetal bovine serum (FBS, Gibco). SK-BR-3 cells were plated in 96-well plate (5000 c/well) in the presence or absence of […] kifunensine (Carbosynth Limited) and cultured for 5 days. Before start of the co-culture, SK-BR-3 cells were washed twice with RPMI 1640 medium (Gibco). Differentiated iDCs were collected and 0.11×10^6 cells/well were added together with the test compounds to SK-BR-3 cells and cells were incubated for 24 h at +37° C. in 5% CO2. The experiment medium was RPMI 1640 medium (Gibco) containing 10 mM Hepes and 2 mM glutamine and supplemented with 10% FBS (Gibco). All treatments were performed as duplicates. […] Phorbol 12-myristate 13-acetate (PMA, Abcam) was used as positive control. After 24 h co-culture of iDCs and SKBR-3 cells, the cell supernatants were collected and centrifuged (3000 g, 5 min, +4° C.) to remove cells and debris. The supernatants were frozen and subjected to cytokine and chemokine analysis with Human Cytokine 48-Plex Discovery Assay (EVE Technologies, Canada).
# mannosidase I [4] = experiment: N-glycan profiling of SK-BR-3 cells after inhibitor/ADC treatment (mannosidase I inhibition); format: cell-based; conditions: 10 μM, 3 days
# Experimental: SK-BR-3 breast cancer cells (ATCC) were cultured in recommended conditions and incubated with glycosylation inhibitors and ADCs for three days. The cells were then subjected to N-glycan profiling with MALDI-TOF MS essentially as described in Leijon et al. 2017, J Clin Endocrinol Metab 102(11):3990-4000, although without the deparaffinization step.
# processing α-mannosidase [5] = experiment: N-glycan profile of JIMT-1 cancer cells after kifunensine or ADC; format: cell-based; conditions: JIMT-1 cells, 3-4 days
# Experimental: (§2) JIMT-1 cancer cells (DSMZ-German Collection of Microorganisms and Cell Cultures; variable/medium HER2 expression) and HCC-1954 cancer cells (ATCC; high HER2 expression) were cultured according to the manufacturers' instructions in standard cell culture conditions and incubated for 3-4 days with either […] kifunensine or trastuzumab-kifunensine ADCs. Effect on N-glycan profiles of the cells was analyzed by isolating cellular N-glycans and MALDI-TOF MS as described above.
# processing α-mannosidase [6] = experiment: N-glycan profile of HCC-1954 cancer cells after kifunensine or ADC; format: cell-based; conditions: HCC-1954 cells, 3-4 days; 10 pM kifunensine; 10 nM or 100 nM ADC
# Experimental: as §2
# [7] = test system: B16-F10 melanoma subcutaneous tumor; experiment: Syngeneic B16-F10 melanoma subcutaneous tumor model; format: in vivo, C57BL/6J mice; conditions: day 15; three 10 mg/kg doses on days 2, 7 and 12 (i.v.; anti-PD-1 i.p.); control group 1534 mm^3
# Experimental: Treatment groups (n=7) were administered with three 10 mg/kg intravenous infusions of antibody or ADC to the tail vein in PBS on days 2, 7 and 12 after subcutaneous inoculation of 0.5 million B16-F10 cells in each mouse. Anti-PD-1 antibody (n=7) was administered by intraperitoneal injection. Control mice (n=5) received no injections. Plotting of the average tumor size was stopped when first mouse in the group was killed due to tumor growth.
# Tumor growth was followed by palpation. After caliper measurement, tumor volume was calculated according to 0.5×length×width^2. The first dosings were administered 2 days after inoculation and subsequent doses at 5 days' intervals. Mice were randomly divided into study groups.
# The B16-F10 tumor-bearing mice (strain C57BL/6J) were administered as described above with three 10 mg/kg i.v. (intravenous infusion to the tail vein in PBS) doses each of avelumab, avelumab-cyclo-MeMe-kifunensine (DAR=21-28) and avelumab-AANA-kifunensine (DAR=8) as well as with three 10 mg/kg i.p. (intraperitoneal injection in PBS) doses of anti-mouse-PD-1 antibody (InvivoMAb, clone RMP1-14, rat IgG2a kappa). Control mice received no injections. All study groups included 7 tumor-bearing mice while the control group included 5 tumor-bearing mice.
# mannosidase I [8] = experiment: ADC activity in SK-BR-3 cells after incubation of the ADC in human and mouse sera; format: cell-based; conditions: 7 days' incubation in both human and mouse sera, then 10 nM in SK-BR-3 culture for three days
# [9] = test system: HCC-1954 xenograft tumors; experiment: HCC-1954 xenograft: N-glycan profiling of tumors and tissues after ADC dosing; format: in vivo, mice (Balb/cAnNRj-Foxn1nu-nu); conditions: three 10 mg/kg i.v. doses, tumors collected on day 8
# Experimental: The study was performed at the TCDM/Central Animal Laboratory, University of Turku, Finland, according to the appropriate ethical committee approval. Cells for inoculation to mice were prepared in vigorous exponential growth phase. 5 million cells in 50% Matrigel were inoculated s.c. to the flank of each mouse. Clinical signs and general behavior of the animals was observed regularly. […] Tumor growth was followed by palpation. After caliper measurement, tumor volume was calculated according to 0.5×length×width^2. The first dosings were administered when average tumor volume reached […]. Mice were evenly divided into study groups so that each group received similar distribution of different-sized tumors and the average tumor volumes were similar in each group. The mice received two additional dosings at 3 days and 6 days after the first dosing. Control mice received no dosings. At the end of the study on day 8 after the first dosing, the mice were sacrificed and representative samples of the tumors, blood (serum), liver, spleen, skin and muscle were taken and frozen for analyses.
# Test substances were prepared as described above. […] The samples were subjected to N-glycan profiling with MALDI-TOF MS essentially as described above.
# [10] = SK-BR-3 + iDCs 24 h co-culture, SK-BR-3 pretreated with 10 pM kifunensine for 5 days
molecule,measurement,setting,value
"CC(C)(C)C(=O)OC[C@@H]1[C@@H](O)[C@H](O)[C@H](O)[C@H]2NC(=O)C(=O)N12 [6-(2,2-dimethyl)propanoyl-kifunensine, 9-(2,2-dimethylpropionyl)-kifunensine ester]",stability against chemical hydrolysis in neutral pH,[1],reasonably stable
same,compound detected after incubation in mouse serum (ester hydrolysis),[2],still present
"CC[C@H](C)C(=O)OC[C@@H]1[C@@H](O)[C@H](O)[C@H](O)[C@H]2NC(=O)C(=O)N12 [6-(2-methyl)butanoyl-kifunensine, 9-(2-methylbutanoyl)-kifunensine ester]",stability against chemical hydrolysis in neutral pH,[1],reasonably stable
same,compound detected after incubation in mouse serum (ester hydrolysis),[2],not detected on day 4
"CCCC(=O)OC[C@@H]1[C@@H](O)[C@H](O)[C@H](O)[C@H]2NC(=O)C(=O)N12 [6-butanoyl-kifunensine, 9-butanoyl-kifunensine ester]",stability against chemical hydrolysis in neutral pH,[1],reasonably stable
same,compound detected after incubation in mouse serum (ester hydrolysis),[2],not detected on day 4
"O=C(O)CCC(=O)OC[C@@H]1[C@@H](O)[C@H](O)[C@H](O)[C@H]2NC(=O)C(=O)N12 [6-succinyl-kifunensine, 9-succinyl-kifunensine]",stability against chemical hydrolysis in neutral pH,[1],reasonably stable
same,compound detected after incubation in mouse serum (ester hydrolysis),[2],still present
"CCCCCCCCCCCCCC(=O)O[C@@H]1[C@@H](C)[C@@]2(O)[C@@H](C=C(CO)C[C@]3(O)C(=O)C(C)=C[C@@H]23)[C@@H]2C(C)(C)[C@]12OC(C)=O [PMA, Phorbol 12-myristate 13-acetate]",Fractalkine,[3]; [10],158.90 pg/mL
same,Fractalkine,"[3]; SK-BR-3 + iDCs 24 h co-culture, without kifunensine pretreatment",45.18 pg/mL
same,Fractalkine,[3]; iDCs without SK-BR-3 cells,8.27 pg/mL
O=C1N[C@@H]2[C@@H](O)[C@@H](O)[C@H](O)[C@@H](CO)N2C1=O [kifunensine],Fractalkine,[3]; [10],121 pg/mL and 120.94 pg/mL
same,average number of mannose residues (Man) in the Man5-9GlcNAc2 glycan signal series,mannosidase I [4],over 8.5
same,"N-glycan profile change (Man9 increase, complex-type decrease) relative to HCC-1954 cells",processing α-mannosidase [5],less intensive
same,relative proportion of complex-type N-glycans,processing α-mannosidase [6],drastically diminished
avelumab: recombinant fully human IgG1 anti-PD-L1 antibody (Bavencio),average tumor volume,[7],472 mm^3
trastuzumab-[DBCO-PEG4-(octakis-amino)-γ-cyclodextrin-(9-(di-3-thio-propanoyl)-kifunensine)7]4 [trastuzumab-cyclo-kifunensine],reduction of activity after serum incubation,mannosidase I [8],over 50%
same,average mannose residues (Man) in the Man5-9GlcNAc2 glycan signal series of tumors,[9],7.36
same,proportion of complex-type N-glycans in the tumors,[9],11%
same,proportion of high-mannose type N-glycans of the total neutral N-glycans in the tumors,[9],78%
trastuzumab-[GalNAz-DBCO-PEG4-(octakis-amino)-γ-cyclodextrin-(9-(4-methyl-4-thio-butanoyl-3-thiopropanoyl)-kifunensine)7]4 [trastuzumab-cyclo-Me-kifunensine],"N-glycan profile change (Man9 increase, complex-type decrease) relative to HCC-1954 cells",processing α-mannosidase [5],less intensive
same,relative proportion of complex-type N-glycans,processing α-mannosidase [6],drastically diminished
same,average mannose residues (Man) in the Man5-9GlcNAc2 glycan signal series of tumors,[9],7.40
same,proportion of complex-type N-glycans in the tumors,[9],10%
same,proportion of high-mannose type N-glycans of the total neutral N-glycans in the tumors,[9],80%
